Assay [1] has as its target T1, Nucleotide-binding oligomerization domain-containing protein 1 (Homo sapiens, UniProt Q9Y239). Put plainly: SAR analysis of NF-kappaB dependent luciferase using DAP as an inducer - Set 2. [Related pubchem assays (depositor defined):AID1566, AID1575, AID1578, AID1579, AID1849, AID1852, AID2264]. It is filed as functional.
Assay [2] deals with T2, Interleukin-8 (Homo sapiens, UniProt P10145). Put plainly: SAR analysis of Tumor necrosis factor alpha (TNF-alpha) induced IL-8 secretion in MCF-7/NOD1 cells - Set 2. [Related pubchem assays (depositor defined):AID1575, AID2250, AID2260]. It is filed as functional, cell-based.
The target of assay [3] is T2, Interleukin-8. Put plainly: SAR analysis of GM-Tri-DAP induced IL-8 secretion in MCF-7/NOD1 cells - Set 2. [Related pubchem assays (depositor defined):AID1575, AID1578, AID2333]. Format: functional, cell-based.
The target in assay [4] is T3, Nucleotide-binding oligomerization domain-containing protein 2 (Homo sapiens, UniProt Q9HC29). Put plainly: inhibition of NOD2 signaling – set 2, SAR follow-up (AID 2475). It is filed as functional.
For assay [5], the system named is HEK293. Briefly: SAR analysis of compounds that are cytotoxic to HEK293 - Set 2. [Related pubchem assays (depositor defined):AID1575, AID1578, AID1849, AID2001, AID2333, AID2334, AID2335, AID2337, AID2800]. It is filed as functional, cell-based. The conditions noted are these: Homo sapiens.
In assay [6] the target is T1, Nucleotide-binding oligomerization domain-containing protein 1. Put plainly: SAR analysis of compounds that inhibit NOD1 - Set 3. [Related pubchem assays (depositor defined):AID1566, AID1575, AID1578, AID1849, AID1852, AID2333, AID2335, AID2466]. Format: functional.
For another assay, the target named is Tumor necrosis factor (Homo sapiens, UniProt P01375). Put plainly: analog potency on TNFa NF-kB signaling – cell-based, set 3, SAR follow-up (AID 2801). It is filed as functional.
Assay [7] concerns HEK293. Put plainly: SAR analysis of compounds that are cytotoxic to HEK293 - Set 3. [Related pubchem assays (depositor defined):AID1575, AID1578, AID1848, AID1849, AID2001, AID2333, AID2334, AID2335, AID2337, AID2469]. Format: functional, cell-based. The settings on record: Homo sapiens.
In assay [8] the target is T3, Nucleotide-binding oligomerization domain-containing protein 2. Briefly: inhibition of MDP-driven NOD2 NF-kB reporter – cell-based, set 3, SAR follow-up (AID 2799). Format: functional.
Assay [9] addresses Signal transducer and activator of transcription 3 (Homo sapiens, UniProt P40763). Briefly: STAT3 blockade with qPCR and toxicity readouts – cell-based, STAT1 panel, cytotoxicity, late-stage follow-up, panel member STAT3 Inhibition (AID 2078).
The target in assay [10] is Signal transducer and activator of transcription 1-alpha/beta (Homo sapiens, UniProt P42224). Put plainly: STAT3 blockade with qPCR and toxicity readouts – cell-based, STAT1 panel, cytotoxicity, late-stage follow-up, panel member STAT1 Inhibition (AID 2078).
The target of assay [11] is Tyrosine-protein phosphatase non-receptor type 12 (Homo sapiens, UniProt Q05209). Briefly: SAR Selectivity Analysis of small molecule inhibitors of PEST using pCAP in a fluorescence assay. [Related pubchem assays (depositor defined):AID1779, AID1784, AID2135]. Format: functional.
The target in assay [12] is T4, Dual specificity protein phosphatase 3 (Homo sapiens, UniProt P51452). Put plainly: SAR VHR1 absorbance Assay for In Vitro dose response studies. [Related pubchem assays (depositor defined):AID1654, AID1661, AID1878, AID1992, AID2004].
The target of assay [13] is T4, Dual specificity protein phosphatase 3. Briefly: SAR VHR1 Fluorescent Assay for In Vitro dose response studies. [Related pubchem assays (depositor defined):AID1654, AID1661, AID1878, AID1992, AID2004, AID2070, AID2085]. Format: functional.
For assay [14], the target named is T5, Tyrosine-protein phosphatase non-receptor type 22 (Homo sapiens, UniProt Q9Y2R2).
T5 sequence (Q9Y2R2 whole entry): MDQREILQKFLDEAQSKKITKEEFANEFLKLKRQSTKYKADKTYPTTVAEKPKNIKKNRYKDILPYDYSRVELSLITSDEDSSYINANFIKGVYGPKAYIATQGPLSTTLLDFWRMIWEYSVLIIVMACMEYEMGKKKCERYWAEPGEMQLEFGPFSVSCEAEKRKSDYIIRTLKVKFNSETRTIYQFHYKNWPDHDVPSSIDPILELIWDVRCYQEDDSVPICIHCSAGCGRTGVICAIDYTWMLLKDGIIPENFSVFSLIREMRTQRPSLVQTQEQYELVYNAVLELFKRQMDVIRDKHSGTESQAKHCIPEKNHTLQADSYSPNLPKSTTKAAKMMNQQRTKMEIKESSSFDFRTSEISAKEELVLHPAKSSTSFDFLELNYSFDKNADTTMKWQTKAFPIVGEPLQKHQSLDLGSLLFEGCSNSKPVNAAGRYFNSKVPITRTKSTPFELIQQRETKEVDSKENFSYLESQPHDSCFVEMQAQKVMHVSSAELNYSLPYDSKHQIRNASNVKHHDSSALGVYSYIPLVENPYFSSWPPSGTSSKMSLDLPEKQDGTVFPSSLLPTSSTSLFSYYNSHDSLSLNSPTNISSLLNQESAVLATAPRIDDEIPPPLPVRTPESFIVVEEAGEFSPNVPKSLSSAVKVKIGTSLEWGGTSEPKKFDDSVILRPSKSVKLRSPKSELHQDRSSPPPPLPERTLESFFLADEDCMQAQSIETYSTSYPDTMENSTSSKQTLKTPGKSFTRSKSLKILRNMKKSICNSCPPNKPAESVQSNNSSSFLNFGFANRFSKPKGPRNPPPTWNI
Put plainly: SAR LYP1 Fluorescent Assay using OMFP substrate for In Vitro dose response studies - Set 3. [Related pubchem assays (depositor defined):AID1779, AID1784, AID2140, AID2686]. It is filed as functional.

Assay [15] deals with T6, Tyrosine-protein phosphatase non-receptor type 7 (Homo sapiens, UniProt P35236).
T6 sequence (P35236 whole entry): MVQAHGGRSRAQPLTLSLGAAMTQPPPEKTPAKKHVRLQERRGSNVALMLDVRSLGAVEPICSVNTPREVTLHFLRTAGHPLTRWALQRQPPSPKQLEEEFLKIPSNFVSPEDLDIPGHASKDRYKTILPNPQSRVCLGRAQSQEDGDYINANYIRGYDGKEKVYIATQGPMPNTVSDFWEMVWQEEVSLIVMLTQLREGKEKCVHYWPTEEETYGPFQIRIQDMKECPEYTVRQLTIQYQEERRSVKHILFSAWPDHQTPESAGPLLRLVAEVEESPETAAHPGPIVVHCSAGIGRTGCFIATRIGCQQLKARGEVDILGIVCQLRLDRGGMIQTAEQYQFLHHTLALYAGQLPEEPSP
Briefly: redox-active compounds inhibiting HePTP phosphatase – biochemical, fluorescence, mechanism study (AID 2068). Format: functional.

Assay [16] has as its target T6, Tyrosine-protein phosphatase non-receptor type 7. Put plainly: inhibition of hematopoietic tyrosine phosphatase HePTP – biochemical, set 2, SAR follow-up (AID 449736). It is filed as functional.
The target of assay [17] is T5, Tyrosine-protein phosphatase non-receptor type 22. Put plainly: inhibition of lymphoid tyrosine phosphatase LYP – biochemical, pCAP fluorogenic substrate, fluorescence, set 3, SAR follow-up (AID 449727). Format: functional.
For assay [18], the target named is T7, Dual specificity protein phosphatase 6 (Rattus norvegicus, UniProt Q64346).
T7 sequence (Q64346 whole entry): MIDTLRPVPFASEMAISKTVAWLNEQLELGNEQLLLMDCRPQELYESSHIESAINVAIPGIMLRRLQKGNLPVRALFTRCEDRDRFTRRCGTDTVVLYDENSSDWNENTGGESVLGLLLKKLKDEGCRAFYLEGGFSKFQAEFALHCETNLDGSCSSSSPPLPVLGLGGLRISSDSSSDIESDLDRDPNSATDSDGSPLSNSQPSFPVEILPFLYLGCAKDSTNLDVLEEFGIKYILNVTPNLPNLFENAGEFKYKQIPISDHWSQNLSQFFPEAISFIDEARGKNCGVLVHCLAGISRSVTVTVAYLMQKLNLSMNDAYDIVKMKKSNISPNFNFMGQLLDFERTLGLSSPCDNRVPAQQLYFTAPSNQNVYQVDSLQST
Format: functional.

A short description of assay [19]: luciferase reporter signal suppression in cells – H4 neuroglioma cells, luminescence, dose response (AID 1990). Format: functional, cell-based.
Assay [20] addresses T4, Dual specificity protein phosphatase 3. Put plainly: VHR1 phosphatase inhibitors, primary screen, biochemical, absorbance, uHTS (AID 1654).
In assay [21] the target is T6, Tyrosine-protein phosphatase non-receptor type 7. Format: functional.
Assay [22] is described as follows: Luminescence Cell-Based Dose Response HTS to Identify Inhibitors of 5'UTR Stem-Loop Driven Prion Protein mRNA Translation in H4 Neuroglioblastoma Cells. [Related pubchem assays: 1827 (Project Summary), 1813 (Primary HTS)]. Format: functional.
Assay [23] is described as follows: alpha-synuclein stem-loop luciferase translation blockers – H4 neuroglioma cells, luminescence, confirmation (AID 1988). Format: functional, cell-based.
For assay [24], the target named is Induced myeloid leukemia cell differentiation protein Mcl-1 (Homo sapiens, UniProt Q07820). Put plainly: blockers of MCL1 binding to BIM peptide – biochemical, fluorescence polarization, BIM-BH3 peptide, 1536-well, dose response (AID 2217).
For assay [25], the target named is T4, Dual specificity protein phosphatase 3. Briefly: VHR1 phosphatase inhibitors, biochemical (AID 1878).
In another assay the target is Bcl-2-like protein 1 (Homo sapiens, UniProt Q07817). Briefly: blockers of BCLXL peptide binding – biochemical, fluorescence polarization, 1536-well, selectivity assay for MCL1 inhibitor project, dose response (AID 2218).
The target in assay [26] is T7, Dual specificity protein phosphatase 6. Put plainly: inhibition of rat DUSP6 enzyme activity – biochemical, in vitro, primary screen (AID 425).
Assay [27] concerns the target T5, Tyrosine-protein phosphatase non-receptor type 22. It is filed as functional.
For assay [28] the target is unchanged. It is filed as functional. The source holds these as a separate data set.
A further assay has as its system INS1. Put plainly: INS-1E survival protection against cytokine death – cell-based, luminescence, retest, dose response (AID 449756).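 Note: cell death triggered by IL-1 beta plus TNF-alpha plus IFN-gamma mixture; protective hits raise ATP signal compared with cytokine alone wells.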 The settings on record: Rattus norvegicus. Format: functional.

The source made the active and inactive calls.

T4 sequence (P51452 whole entry): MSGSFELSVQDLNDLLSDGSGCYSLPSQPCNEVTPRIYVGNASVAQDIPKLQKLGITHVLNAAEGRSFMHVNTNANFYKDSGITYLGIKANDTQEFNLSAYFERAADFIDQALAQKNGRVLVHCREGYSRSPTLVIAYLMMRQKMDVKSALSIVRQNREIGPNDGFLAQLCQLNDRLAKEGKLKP
T2 sequence (P10145 whole entry): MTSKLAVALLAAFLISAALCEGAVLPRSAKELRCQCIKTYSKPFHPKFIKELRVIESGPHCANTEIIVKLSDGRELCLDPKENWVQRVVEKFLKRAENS
T3 sequence (Q9HC29 whole entry, the tested form may be a part): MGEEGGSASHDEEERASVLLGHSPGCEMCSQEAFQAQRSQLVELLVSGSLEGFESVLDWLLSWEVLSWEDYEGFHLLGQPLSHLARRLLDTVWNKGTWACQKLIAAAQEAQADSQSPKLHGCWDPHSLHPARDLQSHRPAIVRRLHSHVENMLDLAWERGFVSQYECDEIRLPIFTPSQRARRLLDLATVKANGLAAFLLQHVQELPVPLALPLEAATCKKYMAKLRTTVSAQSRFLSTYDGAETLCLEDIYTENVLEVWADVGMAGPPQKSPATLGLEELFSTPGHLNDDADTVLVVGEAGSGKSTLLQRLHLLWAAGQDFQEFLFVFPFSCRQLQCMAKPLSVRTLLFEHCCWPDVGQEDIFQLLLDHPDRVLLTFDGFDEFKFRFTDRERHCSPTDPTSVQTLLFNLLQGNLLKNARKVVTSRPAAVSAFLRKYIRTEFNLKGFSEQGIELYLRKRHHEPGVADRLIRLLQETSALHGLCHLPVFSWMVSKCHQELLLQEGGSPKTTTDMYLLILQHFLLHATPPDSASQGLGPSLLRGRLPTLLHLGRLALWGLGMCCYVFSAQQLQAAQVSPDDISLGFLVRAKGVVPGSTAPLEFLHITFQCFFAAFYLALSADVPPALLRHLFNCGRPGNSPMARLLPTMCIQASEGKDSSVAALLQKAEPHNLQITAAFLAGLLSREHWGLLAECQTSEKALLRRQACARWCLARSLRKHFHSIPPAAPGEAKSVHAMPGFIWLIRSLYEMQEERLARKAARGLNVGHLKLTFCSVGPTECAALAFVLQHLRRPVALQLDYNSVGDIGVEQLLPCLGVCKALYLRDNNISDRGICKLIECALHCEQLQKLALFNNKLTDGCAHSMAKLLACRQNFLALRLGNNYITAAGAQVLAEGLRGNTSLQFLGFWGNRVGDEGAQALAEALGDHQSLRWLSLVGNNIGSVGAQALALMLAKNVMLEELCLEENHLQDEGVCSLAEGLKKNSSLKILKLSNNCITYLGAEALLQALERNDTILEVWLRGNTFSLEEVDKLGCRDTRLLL
T1 sequence (Q9Y239 whole entry, the tested form may be a part): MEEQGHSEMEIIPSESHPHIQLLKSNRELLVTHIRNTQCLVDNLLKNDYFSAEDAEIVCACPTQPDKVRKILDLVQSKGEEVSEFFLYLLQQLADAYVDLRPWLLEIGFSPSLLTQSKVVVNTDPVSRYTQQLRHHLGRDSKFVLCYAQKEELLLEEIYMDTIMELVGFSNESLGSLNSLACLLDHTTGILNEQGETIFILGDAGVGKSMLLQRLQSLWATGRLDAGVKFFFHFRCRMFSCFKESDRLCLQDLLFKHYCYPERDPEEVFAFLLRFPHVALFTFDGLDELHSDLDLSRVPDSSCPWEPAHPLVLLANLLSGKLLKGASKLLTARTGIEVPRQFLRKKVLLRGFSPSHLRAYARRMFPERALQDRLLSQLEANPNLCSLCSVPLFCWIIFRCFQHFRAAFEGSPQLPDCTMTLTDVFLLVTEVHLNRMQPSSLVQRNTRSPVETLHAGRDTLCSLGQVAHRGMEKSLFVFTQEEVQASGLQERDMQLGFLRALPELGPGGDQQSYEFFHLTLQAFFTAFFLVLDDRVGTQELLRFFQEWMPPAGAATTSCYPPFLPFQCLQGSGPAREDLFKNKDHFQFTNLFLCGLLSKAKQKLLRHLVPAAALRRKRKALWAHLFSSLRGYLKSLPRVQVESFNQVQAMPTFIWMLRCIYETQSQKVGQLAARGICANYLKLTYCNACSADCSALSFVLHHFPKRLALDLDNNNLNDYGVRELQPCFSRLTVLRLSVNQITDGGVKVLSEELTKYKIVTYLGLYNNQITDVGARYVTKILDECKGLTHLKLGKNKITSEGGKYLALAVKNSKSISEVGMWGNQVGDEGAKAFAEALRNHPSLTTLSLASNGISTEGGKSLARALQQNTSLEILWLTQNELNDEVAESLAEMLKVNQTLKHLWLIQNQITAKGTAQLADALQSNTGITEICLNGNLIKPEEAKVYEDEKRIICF
Tyrosine-protein phosphatase non-receptor type 12, sequence (Q05209 whole entry): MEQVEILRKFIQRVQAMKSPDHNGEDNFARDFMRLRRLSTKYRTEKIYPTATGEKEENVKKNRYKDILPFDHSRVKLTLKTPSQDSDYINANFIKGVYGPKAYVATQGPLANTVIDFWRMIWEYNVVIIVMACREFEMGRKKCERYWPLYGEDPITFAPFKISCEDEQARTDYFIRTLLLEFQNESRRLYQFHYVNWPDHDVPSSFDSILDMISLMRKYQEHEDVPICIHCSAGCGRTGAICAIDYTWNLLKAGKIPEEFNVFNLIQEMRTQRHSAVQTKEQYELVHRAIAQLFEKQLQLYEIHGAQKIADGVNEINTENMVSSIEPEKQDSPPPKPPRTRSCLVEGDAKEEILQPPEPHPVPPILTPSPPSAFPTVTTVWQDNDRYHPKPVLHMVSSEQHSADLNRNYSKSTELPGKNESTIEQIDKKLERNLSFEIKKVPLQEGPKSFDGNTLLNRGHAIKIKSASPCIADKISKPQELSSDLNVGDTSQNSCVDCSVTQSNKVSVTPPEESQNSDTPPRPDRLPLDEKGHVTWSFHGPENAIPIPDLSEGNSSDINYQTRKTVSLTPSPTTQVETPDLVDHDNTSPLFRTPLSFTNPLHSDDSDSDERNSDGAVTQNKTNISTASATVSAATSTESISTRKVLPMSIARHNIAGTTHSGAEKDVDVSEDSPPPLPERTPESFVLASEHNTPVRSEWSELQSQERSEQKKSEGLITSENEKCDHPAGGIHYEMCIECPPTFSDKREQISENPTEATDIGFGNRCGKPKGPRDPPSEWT
Signal transducer and activator of transcription 3, sequence (P40763 whole entry): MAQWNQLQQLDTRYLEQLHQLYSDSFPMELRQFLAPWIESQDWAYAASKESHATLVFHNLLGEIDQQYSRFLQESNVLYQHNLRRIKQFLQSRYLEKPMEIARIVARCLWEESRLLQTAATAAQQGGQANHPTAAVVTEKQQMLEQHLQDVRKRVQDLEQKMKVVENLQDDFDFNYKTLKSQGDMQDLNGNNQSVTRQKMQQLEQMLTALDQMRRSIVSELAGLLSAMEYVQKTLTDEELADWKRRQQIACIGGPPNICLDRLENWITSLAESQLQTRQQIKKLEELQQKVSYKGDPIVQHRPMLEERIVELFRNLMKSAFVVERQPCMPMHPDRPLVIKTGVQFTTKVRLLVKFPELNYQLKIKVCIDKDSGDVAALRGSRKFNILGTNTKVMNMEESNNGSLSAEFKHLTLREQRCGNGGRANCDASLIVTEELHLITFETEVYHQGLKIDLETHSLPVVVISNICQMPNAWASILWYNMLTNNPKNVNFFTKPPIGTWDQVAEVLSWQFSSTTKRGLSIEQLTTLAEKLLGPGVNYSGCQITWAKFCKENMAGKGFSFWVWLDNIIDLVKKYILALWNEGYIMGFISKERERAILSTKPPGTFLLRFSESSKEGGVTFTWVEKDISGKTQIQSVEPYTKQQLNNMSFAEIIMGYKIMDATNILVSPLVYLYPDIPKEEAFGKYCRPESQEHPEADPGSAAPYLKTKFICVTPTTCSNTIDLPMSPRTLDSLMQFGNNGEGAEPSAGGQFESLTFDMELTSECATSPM
Signal transducer and activator of transcription 1-alpha/beta, sequence (P42224 whole entry): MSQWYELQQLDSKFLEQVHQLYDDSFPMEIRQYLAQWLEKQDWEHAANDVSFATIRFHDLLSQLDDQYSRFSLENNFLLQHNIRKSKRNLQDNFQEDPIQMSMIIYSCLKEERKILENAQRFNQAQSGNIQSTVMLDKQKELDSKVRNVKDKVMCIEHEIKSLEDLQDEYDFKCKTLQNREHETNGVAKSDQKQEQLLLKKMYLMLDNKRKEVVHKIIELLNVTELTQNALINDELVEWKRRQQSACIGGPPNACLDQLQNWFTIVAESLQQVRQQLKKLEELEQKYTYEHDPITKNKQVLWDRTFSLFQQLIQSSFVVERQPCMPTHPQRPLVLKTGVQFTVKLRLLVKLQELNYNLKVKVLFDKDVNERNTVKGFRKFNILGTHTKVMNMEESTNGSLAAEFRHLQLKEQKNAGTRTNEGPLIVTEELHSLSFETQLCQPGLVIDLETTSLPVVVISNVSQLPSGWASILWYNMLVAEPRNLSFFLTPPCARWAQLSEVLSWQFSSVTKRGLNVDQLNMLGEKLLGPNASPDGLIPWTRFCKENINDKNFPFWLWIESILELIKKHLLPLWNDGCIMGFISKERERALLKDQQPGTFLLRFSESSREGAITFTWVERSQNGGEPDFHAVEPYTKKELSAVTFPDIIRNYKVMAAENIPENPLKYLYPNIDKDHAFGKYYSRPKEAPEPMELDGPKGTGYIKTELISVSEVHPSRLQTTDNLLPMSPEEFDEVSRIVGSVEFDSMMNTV
Tumor necrosis factor, sequence (P01375 whole entry): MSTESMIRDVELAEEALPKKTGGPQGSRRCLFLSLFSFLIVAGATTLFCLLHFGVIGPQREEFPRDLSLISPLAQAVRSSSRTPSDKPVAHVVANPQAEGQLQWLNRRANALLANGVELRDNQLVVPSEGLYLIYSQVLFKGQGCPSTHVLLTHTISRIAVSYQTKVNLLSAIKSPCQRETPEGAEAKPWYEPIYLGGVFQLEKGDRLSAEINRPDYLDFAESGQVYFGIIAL

In the case of `CC(C)Sc1nc2c(c(=O)[nH]c(=O)n2C)n1Cc1ccccc1`, the IC50 is 18.5 µM (active) in [1]; > 25 µM (inactive) at Interleukin-8 [2]; 3.31 µM (active) on Interleukin-8 [3]; 18.1 µM (active) in [4]; > 20 µM (inactive) in the assay with HEK293 [5]; 1.99 µM (active) in assay [6]. The IC50 (on Tumor necrosis factor; with HEK293 [7]; in [8]) was > 20 µM (inactive) throughout.

In the case of `OC(c1ccccc1)C1CCN(c2ncnc3sccc23)CC1` (stereo unspecified), the results for the half-inhibitory concentration (IC50) in assay [9] and in [10] were 1.84 µM (active) and > 55.7 µM (inactive), respectively.

For `O=C(O)COc1ccc2ccccc2c1`, the IC50 was > 100 µM (inactive) in assay [11]; > 100 µM (inactive) in [12]; > 99 µM (inactive) in assay [13]; > 100 µM (inactive) in [14]; 54.7 µM (active) in assay [15]; > 100 µM (inactive) in assay [16]. In addition, the IC50 is > 100 µM (inactive) in [17] and > 99 µM (inactive) in assay [18].

`COc1cccc(/C=N/NC(=O)c2cc3cc([N+](=O)[O-])ccc3s2)c1O`: the half-maximal effective concentration (EC50) in assay [19] was 7.1 µM (active); in assay [22], 9.8 µM (active); in assay [23] it was 7.86 µM (active). The IC50 in assay [20] was 25.2 µM (active); in [21] it was 14.9 µM (active); in [24], 2.02 µM (active); in assay [25], 5.31 µM (active); on Bcl-2-like protein 1 it was > 109 µM (not active); in [26], 116 µM (not active). In addition, the half-maximal inhibitory concentration (IC50) in assay [27] was 15.7 µM (active); in assay [28] it was 13.1 µM (active). Besides, the concentration at half-maximal activity (AC50) in the assay with INS1 is 3.15 µM (active).

(Values after ChEMBL document CHEMBL1201862, “PubChem BioAssay data set” (2004).)
